Laboratory results: patent US8580820B2, “Tubulysin compounds with high cytotoxicity, pharmaceutical compositions thereof, and method of use thereof” (Kemtech S.r.L., priority 2009, dated 2013)

How the values were obtained:
[1] = test system: A2780, HL60, C6 and HT29 cell lines; experiment: Cytotoxicity in vitro, summary over the cell lines of example 14; type: cell-based, human; rat; settings: all cell lines of Tables 1 and 2; read-out: GI50 values determined by means of the cellular viability values
Protocol: (§1) The cytotoxic effects of the compounds of formula (A) were evaluated by treating […] with different concentrations of the compounds under screening. The following cell lines were used: A2780 (human ovarian carcinoma), HL60 (human leukaemia), C6 (rat glioma) and HT29 (adenocarcinoma of human colon). The cell lines have been obtained by ECACC (European Collection of Cell Cultures).
The cell lines have been cultured in 75 cm^2 flasks with culture medium DMEM (Dulbecco's Medium Eagle Modified, Sigma Aldrich®) and the following additives (Sigma Aldrich®): L-Glutamine 2 mM, 10% Fetal Bovine Serum, Penicillin/-Streptomycin, Fungizone, Gentamycin. The incubation was carried out in modified atmosphere incubators (37° C., 5% CO2). When cell confluence was obtained, the cells were propagated by dilution in a ratio 1:3/1:5 by using a Trypsin-EDTA 1× solution and then transferred into 96 well plates in the suitable culture medium. The cells were then treated for 72 hours with different concentrations (10^−13+10^−4 M) of the compounds under examination. For the tests in vitro the compounds obtained in the examples 1.15 and 6.8 were solubilised in dimethylsulphoxide (DMSO). […]
In order to control the cellular viability, the ATPlite test (Perkin Elmer) was used. […] For the reading the Victor 3 instrument by Perkin Elmer was used.
Four readings were taken for each sample solution. […]

[2] = test system: HT29 (adenocarcinoma of human colon); experiment: Cytotoxicity in vitro, cellular viability (ATPlite Perkin Elmer test), HT29; type: cell-based; set-up: cellular viability (ATPlite Perkin Elmer test): unit not given here; settings: for cellular viability (ATPlite Perkin Elmer test): 72 hours
Protocol: as §1
(§2) The cell lines have been cultured in 75 cm^2 flasks with culture medium DMEM (Dulbecco's Medium Eagle Modified, Sigma Aldrich®) and the following additives (Sigma Aldrich®): L-Glutamine 2 mM, 10% Fetal Bovine Serum, Penicillin/-Streptomycin, Fungizone, Gentamycin. The incubation was carried out in modified atmosphere incubators (37° C., 5% CO2). When cell confluence was obtained, the cells were propagated by dilution in a ratio 1:3/1:5 by using a Trypsin-EDTA 1× solution and then transferred into 96 well plates in the suitable culture medium. The cells were then treated for 72 hours with different concentrations (10^−13+10^−4 M) of the compounds under examination. For the tests in vitro the compounds obtained in the examples 1.15 and 6.8 were solubilised in dimethylsulphoxide (DMSO). All the tests were performed with a constant DMSO concentration equal to 0.1% by weight.
(§3) In order to control the cellular viability, the ATPlite test (Perkin Elmer) was used. The APTlite test evaluates the ATP production. APT is a marker of cellular viability as it is present in all the metabolically active cells. The test’ is based on the chemiluminiscence due to the ATP reaction with the luciferase and the D-luciferin. The emitted light is proportional to the ATP concentration. For the reading the Victor 3 instrument by Perkin Elmer was used.
(§4) Four readings were taken for each sample solution. The results (average values) for the cytotoxicity of the compounds of formula (A) obtained in examples 1.15 and 6.8 are reported respectively in Tables 1 and 2. It is noted that the GI50 values determined by means of the cellular viability values are lower than 2 nM. This confirms the high cytotoxicity of the compound of formula (A).

[3] = test system: A2780 (human ovarian carcinoma); experiment: Cytotoxicity in vitro, cellular viability (ATPlite Perkin Elmer test), A2780; type: cell-based; set-up: cellular viability (ATPlite Perkin Elmer test): unit not given here; settings: 72 hours
Protocol: as §1, §2, §3, §4

[4] = test system: HL60 (human leukaemia); experiment: Cytotoxicity in vitro, cellular viability (ATPlite Perkin Elmer test), HL60; type: cell-based; set-up: cellular viability (ATPlite Perkin Elmer test): unit not given here; settings: HL60
Protocol: as §1, §2, §3, §4

## CCC(C)[C@H](NC(=O)[C@H]1CCCCN1C)C(=O)N(Cc1ccccc1)[C@H](C[C@@H](OC(C)=O)c1nc(C(=O)N[C@@H](Cc2ccccc2)C[C@H](C)C(=O)O)cs1)C(C)C (stereo in doubt) [Example 1.15, (2S,4R)-4-(2-((1R,3R)-1-acetoxy-3-((2S,3R)—N-benzyl-3-methyl-2-(1-methylpiperidin-2-carboxamido)pentanamido)-4-methylpentyl)thiazol-4-carboxamido)-2-methyl-5-phenyl-pentanoic acid]
[1]
  GI50: < 2 nM
[2]; Homo sapiens, HT-29, 72 hours, value is GI50 multiplied by 10^9, Table 1
  GI50: 0.312 nM
[2]; compound 10^−4 mole/litre
  cellular viability (ATPlite Perkin Elmer test): 15.14
[2]; compound 10^−5 mole/litre
  cellular viability (ATPlite Perkin Elmer test): 14.55
[2]; compound 10^−6 mole/litre
  cellular viability (ATPlite Perkin Elmer test): 15.43
[2]; compound 10^−7 mole/litre
  cellular viability (ATPlite Perkin Elmer test): 16.85
[2]; compound 10^−8 mole/litre
  cellular viability (ATPlite Perkin Elmer test): 17.55
[2]; compound 10^−9 mole/litre
  cellular viability (ATPlite Perkin Elmer test): 20.77
[2]; compound 10^−10 mole/litre
  cellular viability (ATPlite Perkin Elmer test): 99.08
[2]; compound 10^−11 mole/litre
  cellular viability (ATPlite Perkin Elmer test): 102.2
[2]; compound 10^−12 mole/litre
  cellular viability (ATPlite Perkin Elmer test): 103.2
[2]; compound 10^−13 mole/litre
  cellular viability (ATPlite Perkin Elmer test): 104.5
[3]; Homo sapiens, value is GI50 multiplied by 10^9, Table 1, read-out: GI50 × 10^9
  GI50: 1.8 pM
[3]; compound 10^−4 mole/litre
  cellular viability (ATPlite Perkin Elmer test): 3.10
[3]; compound 10^−5 mole/litre
  cellular viability (ATPlite Perkin Elmer test): 7.23
[3]; compound 10^−6 mole/litre
  cellular viability (ATPlite Perkin Elmer test): 9.60
[3]; compound 10^−7 mole/litre
  cellular viability (ATPlite Perkin Elmer test): 10.60
[3]; compound 10^−8 mole/litre
  cellular viability (ATPlite Perkin Elmer test): 11.78
[3]; compound 10^−9 mole/litre
  cellular viability (ATPlite Perkin Elmer test): 25.08
[3]; compound 10^−10 mole/litre
  cellular viability (ATPlite Perkin Elmer test): 25.04
[3]; compound 10^−11 mole/litre
  cellular viability (ATPlite Perkin Elmer test): 32.71
[3]; compound 10^−12 mole/litre
  cellular viability (ATPlite Perkin Elmer test): 65.66
[3]; compound 10^−13 mole/litre
  cellular viability (ATPlite Perkin Elmer test): 100.1
[4]; 72 hours, value is GI50 multiplied by 10^9, Table 1
  GI50 × 10^9: 0.0004 moles/litre
[4]; compound 10^−4 mole/litre, 72 hours
  cellular viability (ATPlite Perkin Elmer test): 0.47
[4]; compound 10^−5 mole/litre, 72 hours
  cellular viability (ATPlite Perkin Elmer test): 2.57
[4]; compound 10^−6 mole/litre, 72 hours
  cellular viability (ATPlite Perkin Elmer test): 2.99
[4]; compound 10^−7 mole/litre, 72 hours
  cellular viability (ATPlite Perkin Elmer test): 2.69
[4]; compound 10^−8 mole/litre, 72 hours
  cellular viability (ATPlite Perkin Elmer test): 2.94
[4]; compound 10^−9 mole/litre, 72 hours
  cellular viability (ATPlite Perkin Elmer test): 3.66
[4]; compound 10^−10 mole/litre, 72 hours
  cellular viability (ATPlite Perkin Elmer test): 8.29
[4]; compound 10^−11 mole/litre, 72 hours
  cellular viability (ATPlite Perkin Elmer test): 22.65
[4]; compound 10^−12 mole/litre, 72 hours
  cellular viability (ATPlite Perkin Elmer test): 34.26
[4]; compound 10^−13 mole/litre, 72 hours
  cellular viability (ATPlite Perkin Elmer test): 98.98

## CC[C@H](C)[C@H](NC(=O)[C@H]1CCCCN1C)C(=O)N(CCOC)[C@H](C[C@@H](OC(C)=O)c1nc(C(=O)NC)cs1)C(C)C [Example 15.4, (1R,3R)-3-((2S,3S)—N-(2-methoxyethyl)-3-methyl-2-((R)-1-methylpiperidine-2-carboxamido)pentanamido)-4-methyl-1-(4-(methylcarbamoyl)thiazol-2-yl)pentyl acetate, reference compound]
[4]; concentration of 10^−10 mole/liter
  cell viability: 96%
[4]; concentration of 10^−11 mole/liter
  cell viability: 99.8%
[4]; ratio of GI50 values
  times less toxic than the compounds of the present invention: 10^3 times
[4]; Homo sapiens, HL-60, read-out: citotoxicity, expressed as GI50
  GI50: 10 nM
